For data set [1] the following is noted: pure form, white crystalline compound; cited from earlier work.
The test system of data set [2] is ruminal fluid. The data set can be described thus: In vitro fermentation in buffered goat ruminal fluid, 24 h: gas production (methane content CH4). The following applies: for Gas production / mL CH4: after 24 hrs of incubation; for CH4/S / mL CH4/S / mL gas/S: per S (substrate in g DM), 24 hrs. The class given is cell-based, Murciano-Granadina goats. As to the method:
The gas content can be analysed in a Focus Gas Chromatograph (Thermo, Milan, Italy) equipped with a split/splitless injector and a flame ionization detector. The separation can be performed in a GS-Q capillary column (J&W Scientific, USA) (30 m×0.32 mm i.d.). The carrier gas may be Helium at a constant flow of 1 ml/min. The samples may be injected with a split ratio of 1/100. The initial oven temperature can be set at 50° C. held for 1 min and increased to 150 at 50° C./min and finally maintained at that temperature for 2 min. Both detector and injector temperatures can be set at 200° C. An external standard (41.21% CO2 and 58.79% CH4) may be employed for quantification of methane content in samples.
(§1) Twelve mature Murciano-Granadina goats of similar body weight (46.97±2.5 kg BW) during late lactation were randomly split into 4 groups. Each group was fed with the same total mixed ration for 10 days. Each group included 4 g/kg of one of four types of betaine additive: • 1—Non Coated Betaine BS1 (Betafin S1, natural betaine, DuPont) • 2—Coated Betaine B52 (see preparative example 3) • 3—Coated Betaine B60 (see preparative example 4) • 4—Uncoated Betaine HCl
(§2) After an adaptation period to the diets including betaine of 10 days, ruminal fluid was obtained by means of an oesophagus probe from all goats. Ruminal fluid from goats (3 per treatment) was obtained just before feeding, transported to the laboratory and immediately strained/filtered across/through four layers of cheesecloth and mixed into an Erlenmeyer flask.
(§3) The in vitro fermentation was carried out by the following incubation process; the squeezed rumen fluid (after filtration) was mixed with Goering and Van Soest (1970) buffer solution in a 1:4 (v/v) ratio at 39° C. under continuous flow of CO2.
(§4) Samples of 1 g of total ration (0.4 g concentrate and 0.6 g alfalfa hay) plus betaine (0.015 g of each type) were accurately weighed and mixed into 125 mL bottles (ANKOM RF equipment). 50 mL of the buffered rumen fluid was added to each bottle under CO2 flow.
(§5) Bottles were sealed and incubated at 39° C. for 24 h. Gas measurements were recorded every hour, while pH was measured at the start and right after 24 h; crude fiber, digestibility, CH4 and volatile fatty acid (VFA) concentrations were determined after 24 h of incubation.

For data set [3], the system named is ruminal fluid. The data set can be described thus: In vitro fermentation in buffered goat ruminal fluid, 24 h: determination of volatile fatty acids (VFA). The data set is classed as cell-based, Murciano-Granadina goats. To be noted: after 24 h of incubation. As to the method: Determination of VFA can be based on the method previously described by Jouany, J. P., Volatile fatty acid and alcohol determination in digestive contents, silage juices, bacterial cultures and anaerobic fermentor contents; Sciences des Aliments, 2: 131-144, 1982.
For instance, samples are filtered through 0.45 μm cellulose syringe filters. One hundred microliters of an internal standard solution (0.4 g of 4-metil-valeric acid diluted in 100 ml of deionised water) and 0.1 ml of a preservative (a mix of 5% H3PO4 and 1% CIHg in deionised water) are added to 0.8 ml of filtrate. One μL from each sample is injected in a gas chromatograph (Fisons 8000 series, Milan, Italy) equipped with a split/splitless injector and FID detector. The separation of SOFA (short chain fatty acids) is made in a DB-FFAP capillary column (30 m×0.25 mm×0.25 μm of film thickness) J&W Scientific (USA). The carrier gas is N2 at a constant pressure of 120 KPa. Both detector and injector temperatures are set at 245° C. The initial oven temperature is set at 115° C. held for 5 min and increased to 230 at 8.5° C./min and finally maintained at that temperature for 10 min. SOFA are identified by comparing their retention times with a standard (46975-U de Supelco®, PA, USA).
as §1, §2, §3, §4, §5

For data set [4], the system named is ruminal fluid. Kind of data set: In vitro fermentation in buffered goat ruminal fluid, 24 h: ruminal parameters (DM, pH, residue, digestibility, N-NH3). The following applies: 24 h incubation. The data set is classed as cell-based, Murciano-Granadina goats.
Text: as §1, §2
The in vitro fermentation was carried out by the following incubation process; the squeezed rumen fluid (after filtration) was mixed with Goering and Van Soest (1970) buffer solution in a 1:4 (v/v) ratio at 39° C. under continuous flow of CO2. […]
Bottles were sealed and incubated at 39° C. for 24 h. Gas measurements were recorded every hour, while pH was measured at the start and right after 24 h; crude fiber, digestibility, CH4 and volatile fatty acid (VFA) concentrations were determined after 24 h of incubation. […]

Structures are written as SMILES. Counter-ions that a name gives are not always drawn. Marks after values point to notes of the source that are not given here.

As for `C[N+](C)(C)CC(=O)[O-]` [betaine, trimethylglycine], the “solubility in water and lower alcohols” value in data set [1] is “readily soluble”.

For the compound `C[N+](C)(C)CC(=O)[O-]` [BS1, betaine], in the data set with ruminal fluid [2], the “Gas production” value turned out to be 203.41 mL, the “mL CH4” value is 12.17^a mL, the “CH4/S” value is listed as 498.54 J and the “mL CH4/S” value is listed as 12.65^a mL. Also, the “mL gas/S” value in the data set with ruminal fluid [2] is 210.33 mL. Moreover, in the data set with ruminal fluid [3], the Acetic acid is 63.92, the Butyric acid is 15.26^a, the Isobutyric acid worked out at 0.51 and the Isovaleric acid was 0.66. Further, in the data set on ruminal fluid [3], the N-Caproic acid was determined as 0.18, the N-Valeric acid came to 1.55, the Propionic acid is reported as 17.92^b and the “Total VFA” value came out at 43.46 mmol/L. In addition, the “N—NH3, mg/L (ammonia nitrogen)” value with ruminal fluid [4] is listed as 45.04 mg/L.

As to `C[N+](C)(C)CC(=O)O` [BHCl, Betaine HCl, reference compound], in the data set with ruminal fluid [2], the “Gas production” value is on record as 210.67 mL, the “mL CH4” value is recorded as 10.68^a mL, the “CH4/S” value is 437.48 J and the “mL CH4/S” value is on record as 11.10^a mL. Besides, the “mL gas/S” value with ruminal fluid [2] is 218.70 mL. Also, in the data set on ruminal fluid [3], the Acetic acid worked out at 63.90, the Butyric acid is recorded as 14.63^a, the Isobutyric acid is listed as 0.61 and the Isovaleric acid is recorded as 0.95. Moreover, in the data set with ruminal fluid [3], the N-Caproic acid is reported as 0.19, the N-Valeric acid is 1.64, the Propionic acid is reported as 18.07^b and the “Total VFA” value stood at 47.13 mmol/L. In addition, in the data set on ruminal fluid [4], the “N—NH3, mg/L (ammonia nitrogen)” value is listed as 51.13 mg/L.
